In this experiment the target is T1, Aspartate-semialdehyde dehydrogenase (Helicobacter pylori (strain ATCC 700392 / 26695) (Campylobacterpylori), UniProt O25801).
T1 sequence (O25801 whole entry): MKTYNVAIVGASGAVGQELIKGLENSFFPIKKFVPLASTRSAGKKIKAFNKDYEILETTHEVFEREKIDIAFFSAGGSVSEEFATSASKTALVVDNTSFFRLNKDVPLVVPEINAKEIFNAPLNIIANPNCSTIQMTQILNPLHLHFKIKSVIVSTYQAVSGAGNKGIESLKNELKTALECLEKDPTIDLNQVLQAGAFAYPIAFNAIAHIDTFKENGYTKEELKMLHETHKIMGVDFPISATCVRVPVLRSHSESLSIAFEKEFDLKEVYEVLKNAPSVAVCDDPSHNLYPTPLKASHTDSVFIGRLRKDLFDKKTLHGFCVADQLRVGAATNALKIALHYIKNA
The experiment can be described thus: Inhibition of Helicobacter pylori His-tagged ASD assessed as inhibition of phosphorylation of aspartate semialdehyde.

On to `N[C@@H](CSS(=O)(=O)O)C(=O)O`, for which the IC50 was 0.18 µM.
Take `C[n+]1ccc2c(c1)c(O)c1c3c(c4cc(Br)ccc4nc32)C(=O)C[N+]1(C)C` [PETROSAMINE B]: the IC50 is 306 µM.

As a reminder, the IC50 is the point on the concentration scale where inhibition reaches its midpoint.

The record behind these values is ChEMBL document CHEMBL1158777, “Petrosamine B, an inhibitor of the Helicobacter pylori enzyme aspartyl semialdehyde dehydrogenase from the Australian sponge Oceanapia sp” (J Nat Prod, 2005).
